In patent US10206399B2, “Herbicidal composition comprising uracil compound as active ingredient” (Dongbu Farm Hannong Co., Ltd., priority 2012, dated 2019):
Like-named read-outs stand apart in the source and are kept apart here.

Legend:
Echinochloa crus = assay: Dry field farming herbicidal composition test, plant mortality; type: in vivo
Excerpt: (§1) X is % damage by uracil compound (a) of formula 1 at the rate of application of p kg/ha; Y is % damage by conventional herbicidal compound (b) at the rate of application of q kg/ha; and E is the expected damage caused by compounds (a) and (b) at a rate of application of p and q kg/ha.
(§2) The expected activity for a given combination of two herbicides can be calculated using equation 1 above.

Digitaria sanguinalis = assay: as above; type: in vivo
Excerpt: as §1, §2

Abutilon theophrasti = assay: Dry field farming herbicidal composition test, plant mortality; type: in vivo
Excerpt: as §1, §2

Aeschynomene indica = assay: as above; type: in vivo
Excerpt: as §1, §2

[1] = Echinochloa, read-out: Echinochloa crus mortality, measured value
[2] = Digitaria sanguinalis, read-out: Digitaria sanguinalis mortality, measured value
[3] = Abutilon theophrasti, read-out: Abutilon theophrasti mortality, measured value
[4] = Aeschynomene indica, read-out: Aeschynomene indica mortality, measured value

CC(C)N(C(=O)COc1nnc(C(F)(F)F)s1)c1ccc(F)cc1 [Flufenacet]
pest or weed control at 87.5 g/ha (Echinochloa crus; [1]): 7%
pest or weed control at 175 g/ha (Echinochloa crus; [1]): 24%
pest or weed control at 350 g/ha (Echinochloa crus; [1]): 50%
pest or weed control at 87.5 g/ha (Digitaria sanguinalis; [2]): 7%
pest or weed control at 175 g/ha (Digitaria sanguinalis; [2]): 22%
pest or weed control at 350 g/ha (Digitaria sanguinalis; [2]): 53%
Corn mortality, measured value (corn; 87.5 g/ha): 0
Corn mortality, measured value (corn; 175 g/ha): 0
Corn mortality, measured value (corn; 350 g/ha): 1
pest or weed control at 87.5 g/ha (Abutilon theophrasti; [3]): 9%
pest or weed control at 175 g/ha (Abutilon theophrasti; [3]): 23%
pest or weed control at 350 g/ha (Abutilon theophrasti; [3]): 46%
pest or weed control at 87.5 g/ha (Aeschynomene indica; [4]): 6%
pest or weed control at 175 g/ha (Aeschynomene indica; [4]): 18%
pest or weed control at 350 g/ha (Aeschynomene indica; [4]): 46%

CS(=O)(=O)c1cc(C(F)(F)F)ccc1C(=O)c1cnoc1C1CC1 [Isoxaflutole]
pest or weed control at 12.5 g/ha (Echinochloa crus; [1]): 14%
pest or weed control at 25 g/ha (Echinochloa crus; [1]): 29%
pest or weed control at 50 g/ha (Echinochloa crus; [1]): 61%
pest or weed control at 12.5 g/ha (Digitaria sanguinalis; [2]): 10%
pest or weed control at 25 g/ha (Digitaria sanguinalis; [2]): 24%
pest or weed control at 50 g/ha (Digitaria sanguinalis; [2]): 53%
Corn mortality, measured value (corn; 12.5 g/ha): 0
Corn mortality, measured value (corn; 25 g/ha): 0
Corn mortality, measured value (corn; 50 g/ha): 0
pest or weed control at 12.5 g/ha (Abutilon theophrasti; [3]): 12%
pest or weed control at 25 g/ha (Abutilon theophrasti; [3]): 31%
pest or weed control at 50 g/ha (Abutilon theophrasti; [3]): 62%
pest or weed control at 12.5 g/ha (Aeschynomene indica; [4]): 9%
pest or weed control at 25 g/ha (Aeschynomene indica; [4]): 28%
pest or weed control at 50 g/ha (Aeschynomene indica; [4]): 56%

COc1cc(OC)nc(NC(=O)NS(=O)(=O)c2ncccc2C(=O)N(C)C)n1 [Nicosulfuron]
pest or weed control at 5 g/ha (Echinochloa crus; [1]): 10%
pest or weed control at 10 g/ha (Echinochloa crus; [1]): 24%
pest or weed control at 20 g/ha (Echinochloa crus; [1]): 50%
pest or weed control at 5 g/ha (Digitaria sanguinalis; [2]): 7%
pest or weed control at 10 g/ha (Digitaria sanguinalis; [2]): 24%
pest or weed control at 20 g/ha (Digitaria sanguinalis; [2]): 50%
Corn mortality, measured value (corn; 5 g/ha): 0
Corn mortality, measured value (corn; 10 g/ha): 0
Corn mortality, measured value (corn; 20 g/ha): 0
pest or weed control at 5 g/ha (Abutilon theophrasti; [3]): 8%
pest or weed control at 10 g/ha (Abutilon theophrasti; [3]): 26%
pest or weed control at 20 g/ha (Abutilon theophrasti; [3]): 62%
pest or weed control at 5 g/ha (Aeschynomene indica; [4]): 11%
pest or weed control at 10 g/ha (Aeschynomene indica; [4]): 30%
pest or weed control at 20 g/ha (Aeschynomene indica; [4]): 65%

COc1nc(C)nc(NC(=O)NS(=O)(=O)c2cc(I)ccc2C(=O)O)n1 [Iodosulfuron]
pest or weed control at 1.25 g/ha (Echinochloa crus; [1]): 7%
pest or weed control at 5 g/ha (Echinochloa crus; [1]): 58%
pest or weed control at 1.25 g/ha (Digitaria sanguinalis; [2]): 12%
pest or weed control at 5 g/ha (Digitaria sanguinalis; [2]): 56%
Corn mortality, measured value (corn; 1.25 g/ha): 0
Corn mortality, measured value (corn; 5 g/ha): 1
pest or weed control at 1.25 g/ha (Abutilon theophrasti; [3]): 13%
pest or weed control at 5 g/ha (Abutilon theophrasti; [3]): 61%
pest or weed control at 1.25 g/ha (Aeschynomene indica; [4]): 12%
pest or weed control at 5 g/ha (Aeschynomene indica; [4]): 47%

CS(=O)(=O)c1ccc(C(=O)C2C(=O)CCCC2=O)c([N+](=O)[O-])c1 [Mesotrione]
Echinochloa crus mortality, measured value (Echinochloa crus; 15 g/ha): 0
Echinochloa crus mortality, measured value (Echinochloa crus; 30 g/ha): 5
Echinochloa crus mortality, measured value (Echinochloa crus; 60 g/ha): 15
pest or weed control at 15 g/ha (Echinochloa crus; [1]): 0%
pest or weed control at 30 g/ha (Echinochloa crus; [1]): 5%
pest or weed control at 60 g/ha (Echinochloa crus; [1]): 15%
Digitaria sanguinalis mortality, measured value (Digitaria sanguinalis; 15 g/ha): 0
Digitaria sanguinalis mortality, measured value (Digitaria sanguinalis; 30 g/ha): 5
Digitaria sanguinalis mortality, measured value (Digitaria sanguinalis; 60 g/ha): 10
pest or weed control at 15 g/ha (Digitaria sanguinalis; [2]): 0%
pest or weed control at 30 g/ha (Digitaria sanguinalis; [2]): 5%
pest or weed control at 60 g/ha (Digitaria sanguinalis; [2]): 10%
Corn mortality (measured value) (corn; 15 g/ha): 0
Corn mortality, measured value (corn; 15 g/ha): 0
Corn mortality (measured value) (corn; 30 g/ha): 0
Corn mortality, measured value (corn; 30 g/ha): 0
Corn mortality (measured value) (corn; 60 g/ha): 1
Corn mortality, measured value (corn; 60 g/ha): 1
Abutilon theophrasti mortality, measured value (Abutilon theophrasti; 15 g/ha): 15
Abutilon theophrasti mortality, measured value (Abutilon theophrasti; 30 g/ha): 29
Abutilon theophrasti mortality, measured value (Abutilon theophrasti; 60 g/ha): 58
pest or weed control at 15 g/ha (Abutilon theophrasti; [3]): 15%
pest or weed control at 30 g/ha (Abutilon theophrasti; [3]): 29%
pest or weed control at 60 g/ha (Abutilon theophrasti; [3]): 58%
Aeschynomene indica mortality, measured value (Aeschynomene indica; 15 g/ha): 11
Aeschynomene indica mortality, measured value (Aeschynomene indica; 30 g/ha): 27
Aeschynomene indica mortality, measured value (Aeschynomene indica; 60 g/ha): 54
pest or weed control at 15 g/ha (Aeschynomene indica; [4]): 11%
pest or weed control at 30 g/ha (Aeschynomene indica; [4]): 27%
pest or weed control at 60 g/ha (Aeschynomene indica; [4]): 54%
